Tests used:
Type in all cases: functional
Bacillus subtilis = assay: Antibacterial activity against Bacillus subtilis ATCC 6051 at 200 ug/disk by standard disk assay; details: read-out: IZ
Ascobolus = assay: Antifungal activity against Ascobolus furfuraceus NRRL 6460 at 200 ug/disk by paper disk assay
Sordaria fimicola = assay: Antifungal activity against Sordaria fimicola NRRL 6459 at 200 ug/disk by paper disk assay
Staphylococcus aureus = assay: Antibacterial activity against Staphylococcus aureus ATCC 29213 at 200 ug/disk by standard disk assay; details: read-out: IZ

| Structure (SMILES) | zone of inhibition at 200 µg/disc (Bacillus subtilis) [mm] | inhibition at 200 µg/disc (Ascobolus) [%] | Activity (Sordaria fimicola) [%] | zone of inhibition at 200 µg/disc (Staphylococcus aureus) [mm] |
| --- | --- | --- | --- | --- |
| Cc1cc(CO)c2c(=O)c3c(O)cccc3oc2c1 | 7 | 20 | 33 | – |
| Cc1cc(O)c2c(c1)C(O)Oc1cccc(O)c1C2=O (configuration not stated) [ARUGOSIN F] | 15 | 100 | 50 | 7 |
